Data on 15 compounds can be found in PubChem BioAssay (NCI).

SMILES strings stand for the structures.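 1) Cells in 96-well plates. 2) Compound, 48 h, 5 concentrations. 3) Linear interpolation between surrounding doses. 4) Unreached endpoint = highest concentration. At the TGI there is no net growth.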

Test systems include KM12 colon; LOX IMVI melanoma; MDA-MB-435; NCI-H226 lung; NCI-H23 lung; SF-295 CNS; SK-MEL-5 melanoma; SNB-19 CNS; TK-10 renal; NCI-H460 lung.
Experiment in all cases: NCI tumour cell line growth inhibition, 48 h

With `O=C(c1ccccc1)c1ccc2[nH]c(-c3c(Cl)c(Cl)c(Cl)c(Cl)c3C(=O)N/N=C/c3cccc(Oc4ccccc4)c3)nc2c1`, the TGI with KM12 colon, in the assay with LOX IMVI melanoma, in the assay on MDA-MB-435, with NCI-H226 lung, with NCI-H23 lung and in the assay on SF-295 CNS was above 100 µM each time. In addition, the TGI with SK-MEL-5 melanoma, in the assay with SNB-19 CNS and in the assay on TK-10 renal was above 100 µM in each case.
In the case of `CC(=O)OCC1OC(Nn2c(=O)[nH]c3ccccc3c2=O)C(OC(C)=O)C(OC(C)=O)C1OC(C)=O` (stereo not given), the TGI with KM12 colon, in the assay on LOX IMVI melanoma, with MDA-MB-435, with NCI-H226 lung, in the assay with NCI-H23 lung and with NCI-H460 lung was above 100 µM each time. Also, the TGI in the assay with SF-295 CNS, in the assay on SK-MEL-5 melanoma and with SNB-19 CNS was above 100 µM in each case.
As to `N#Cc1c(-c2ccc(Cl)cc2)[nH]c(=O)n(C2OC(CO)C(O)C(O)C2O)c1=O` (stereo not given), the TGI in the assay with KM12 colon, with MDA-MB-435, in the assay with NCI-H226 lung, in the assay with NCI-H23 lung, with NCI-H460 lung and with SF-295 CNS was above 100 µM each time. Further, the TGI in the assay with SK-MEL-5 melanoma, in the assay on SNB-19 CNS and in the assay on TK-10 renal was above 100 µM throughout.
Take `O=C(CN1CCOCC1)c1ccc2c(c1)oc(=O)n2CCN1CCOCC1`: the TGI in the assay with KM12 colon, in the assay with LOX IMVI melanoma, in the assay on MDA-MB-435, with NCI-H226 lung, with SF-295 CNS and in the assay with SK-MEL-5 melanoma was above 100 µM throughout. This compound also yielded a TGI in the assay with SNB-19 CNS above 100 µM.
Consider `O=c1[nH]nc(-c2ccccc2)n1/N=C/c1cccs1`, for which the TGI in the assay on KM12 colon is above 100 µM; in the assay with LOX IMVI melanoma it was above 100 µM; with MDA-MB-435, 79.5 µM; in the assay on NCI-H226 lung, above 100 µM; in the assay with NCI-H23 lung it was above 100 µM; in the assay with NCI-H460 lung, above 100 µM. Further, the TGI with SF-295 CNS and in the assay with SNB-19 CNS was above 100 µM each time.
Take `COC1CC(COCc2ccccc2)CC(OC)O1` (stereo not given): the TGI in the assay on KM12 colon, in the assay with LOX IMVI melanoma, in the assay with MDA-MB-435, with NCI-H226 lung, in the assay with NCI-H23 lung and in the assay on NCI-H460 lung was above 100 µM throughout. The TGI in the assay with SF-295 CNS, in the assay on SK-MEL-5 melanoma and in the assay with TK-10 renal was above 100 µM throughout.
Regarding `COC(=O)C1(C#N)C(C)(C)N=C(c2ccccc2)C12CCCCC2` (stereo not given), the TGI with KM12 colon, with LOX IMVI melanoma, in the assay with MDA-MB-435, in the assay on NCI-H23 lung, in the assay with NCI-H460 lung and in the assay with SF-295 CNS was above 100 µM each time. Also, the TGI with SK-MEL-5 melanoma, in the assay with SNB-19 CNS and in the assay on TK-10 renal was above 100 µM each time.
`O=C1C(=O)N(c2cccc(C(F)(F)F)c2)C(=S)N1c1ccccc1`: the TGI was above 100 µM in the assay with KM12 colon; 82.4 µM in the assay with MDA-MB-435; 97.5 µM in the assay with NCI-H226 lung; 82.9 µM with NCI-H23 lung; 6.49 µM with NCI-H460 lung; above 100 µM with SF-295 CNS. Moreover, the TGI with SK-MEL-5 melanoma was 32 µM; in the assay with SNB-19 CNS, above 100 µM; in the assay on TK-10 renal it was 8.84 µM.
Consider `N#Cc1c(N2CCC(O)C2)c2ccccc2n2c1nc1ccccc12` (stereo not given), for which the TGI in the assay on KM12 colon, with LOX IMVI melanoma, in the assay with MDA-MB-435, with NCI-H23 lung, in the assay on NCI-H460 lung and in the assay on SF-295 CNS was above 100 µM in each case. Moreover, the TGI in the assay on SK-MEL-5 melanoma, in the assay on SNB-19 CNS and with TK-10 renal was above 100 µM in each case.
`NC(=O)NCCCC(NC(=O)OCCCCCCn1ccc(=O)[nH]c1=O)C(=O)O` (stereo not given): the TGI with KM12 colon, in the assay on LOX IMVI melanoma, in the assay on MDA-MB-435, in the assay with NCI-H226 lung, in the assay with NCI-H23 lung and in the assay on NCI-H460 lung was above 100 µM throughout. For the same compound, the TGI in the assay on SF-295 CNS, in the assay on SNB-19 CNS and in the assay with TK-10 renal was above 100 µM in each case.
For `CS(=O)(=O)c1ccc(N=C/C=C/Nc2ccc(S(C)(=O)=O)cc2)cc1`, the TGI with KM12 colon, in the assay with MDA-MB-435, with NCI-H226 lung, in the assay with NCI-H23 lung, with NCI-H460 lung and with SF-295 CNS was above 100 µM in each case. The TGI in the assay on SK-MEL-5 melanoma, with SNB-19 CNS and in the assay on TK-10 renal was above 100 µM each time.
For `CC[C@@]1(C)CCC2c3ccc(O)cc3CC[C@H]2C1C` (stereo not given in full), the TGI in the assay with KM12 colon worked out at 36.7 µM; in the assay with LOX IMVI melanoma, 31.9 µM; with MDA-MB-435 it was 30.2 µM; in the assay on NCI-H23 lung it was 36.2 µM; with NCI-H460 lung it was 40.6 µM; in the assay on SF-295 CNS, 34.6 µM. In addition, the TGI came to 30.7 µM in the assay on SK-MEL-5 melanoma, 32.1 µM with SNB-19 CNS and 33.3 µM in the assay with TK-10 renal.
Turning to `CCOC(=O)C1=NN(c2ccc([N+](=O)[O-])cc2)[C@@]2(C)C[C@]3(c4ccccc4)N(c4ccc([N+](=O)[O-])cc4)N=C(C(=O)OCC)N3c3ccccc3N12`, the TGI in the assay with KM12 colon, with LOX IMVI melanoma, in the assay on MDA-MB-435, in the assay with NCI-H226 lung, in the assay on NCI-H23 lung and with SF-295 CNS was above 100 µM throughout. In addition, the TGI with SK-MEL-5 melanoma, in the assay with SNB-19 CNS and in the assay on TK-10 renal was above 100 µM in each case.
With `CC(C)NC(=O)OCc1c(CO)c2c(n1C)-c1ccccc1CC2`, the TGI is above 86.8 µM in the assay on KM12 colon; 56.8 µM in the assay with LOX IMVI melanoma; above 64.5 µM in the assay with NCI-H226 lung; above 65.1 µM in the assay on NCI-H23 lung; 67.7 µM in the assay with NCI-H460 lung; above 100 µM with SF-295 CNS. In addition, the TGI was 71 µM with SK-MEL-5 melanoma and above 100 µM with SNB-19 CNS.
Take `Cc1c2c(c(O)c3c(O)cccc13)C(=O)C1(O)C(O)=C(C(=O)NCNc3ccc(C(N)=O)cn3)C(=O)C(N(C)C)C1C2` (stereo not given): the TGI is 15.6 µM with KM12 colon; above 100 µM with LOX IMVI melanoma; 27.1 µM in the assay on MDA-MB-435; above 100 µM in the assay with NCI-H226 lung; 39.3 µM in the assay with NCI-H23 lung; 17.9 µM in the assay with SF-295 CNS. The TGI was 11.2 µM in the assay with SK-MEL-5 melanoma and 49.2 µM in the assay on TK-10 renal.
